Measurements published in patent US7579356B2, “Thia-tetraazaacenaphthylene kinase inhibitors” (Janssen Pharmaceutica NV, priority 2005, dated 2009).

How the values were obtained:
Format in all cases: biochemical
[1] = biological target: T1, EGFR (Homo sapiens, UniProt P00533); assay: EGFR Kinase Assay; conditions: for IC50: GST-EGFR, ATP 5 μM; for inhibition at 2 µM: test concentration of 2 μM, compounds without an IC50, read-out: EGFR inhibition in percent
T1 construct: The intracellular portion of EGFR started at nucleotide 2189 (corresponding to amino acid 667) and ended at the termination codon; made in house; host or cells: Sf9 insect cells (baculovirus)
Outline: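 Potency came from triplicate 16-point half-log titrations starting at 200 uM, with IC50 fitted from % inhibition against log concentration, or % inhibition at 2 μM otherwise. Reaction: Sf9-made GST–EGFR cytoplasmic region (aa 667 onward), biotin-polyGluTyr, 5 μM ATP with 33P tracer, pH 8.0 Tris/Mg/vanadate/DTT, 30 °C for 1 h; captured on streptavidin Flashplates and counted.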

[2] = biological target: T2, c-Src kinase (human) (Homo sapiens, UniProt P12931); assay: c-Src Kinase Assay; conditions: test concentration of 2 μM; multiple values are separate assay results
T2 construct: purchased Upstate Biotechnology, Lake Placid, N.Y
Protocol: A mixture of a 10× kinase buffer (80 mM MOPS at pH 7.0, 2 mM EDTA and 100 mM Magnesium Chloride), ATP (5 μM final from a 10 mM stock), a Cdc2 peptide KVEKIGEGTYGVVYK (100 μM final from a 2.5 mM stock), γ-^33P ATP (10 μCl/μL stock) and water (for a total of 20 μL/well) was added to each well of a Streptavidin Flashplate.
Test compound in 100% DMSO (0.5 μL) was added to the appropriate wells. Diluted c-Src kinase (human) (Accession Number SWISS-PROT P12931) (Upstate Biotechnology, Lake Placid, N.Y.) (diluted in a buffer consisting of 20 mM MOPS at pH 7.0, 1 mM EDTA, β-mercaptoethanol (0.1%), Brij-35 (0.01%), glycerol (5%), and 1 mg/mL bovine serum albumin) (2.5 μL) was added to the wells to initiate the reactions. The reaction plates were incubated at 30° C. for 40 min. The reaction was terminated by the addition of a 3% phosphoric acid solution (5 μL). The reaction product (10 μL) was spotted onto a P30 filtermat and washed for 5 minutes in phosphoric acid (75 mM). The wash sequence was repeated two more times, followed with one final wash in methanol. The plates were then dried, sealed and read on the TopCount scintillation counter after adding 30 μL scintillation fluid.
(§1) The c-Src inhibition values were derived using the percent inhibition formula provided in Example 164 and are shown as percent in Table 2 at a test concentration of 2 μM. For those compounds with an IC50, the IC50 value in μM is shown in parentheses. For compounds with multiple test values, each value represents a separate assay result.

[3] = biological target: T3, Lyn kinase (human) (Homo sapiens, UniProt P07948); assay: Lyn Kinase Assay; conditions: test concentration of 2 μM
T3 construct: purchased Upstate Biotechnology, Lake Placid, N.Y
Protocol: A mixture of a 10× kinase buffer (500 mM MOPS at pH 7.5, 1 mM EGTA, 1 mM Sodium Vanadate, 1% β-mercaptoethanol and 100 mM Magnesium Acetate), ATP (5 μM final from a 10 mM stock), polyGluTyr (0.1 mg/mL final from a 1 mg/mL stock), γ-^33P ATP (10 μCl/μL stock) and water (for a total of 20 μL/well) was added to each well of a Streptavidin Flashplate.
Test compound in 100% DMSO (0.5 μL) was added to the appropriate wells. Diluted Lyn kinase (human)(Accession Number EMBL M16038) (Upstate Biotechnology, Lake Placid, N.Y.) (diluted in a buffer consisting of 50 mM Tris at pH 7.5, 0.1 mM EGTA, Sodium Vanadate (0.1 mM), β-mercaptoethanol (0.1%) and 1 mg/mL bovine serum albumin) (2.5 μL) was added to the wells to initiate the reactions.
The reaction plates were incubated at 30° C. for 40 min. The reaction was terminated by the addition of a 3% phosphoric acid solution (5 μL). The reaction product (10 μL) was spotted onto a P30 filtermat and washed for 5 minutes in phosphoric acid (75 mM). The wash sequence was repeated two more times, followed with one final wash in methanol. The plates were then dried, sealed and read on the TopCount scintillation counter after adding 30 μL scintillation fluid.
as §1, with “The Lyn” for “The c-Src”, “derived according to” for “derived using”, “the procedure described” for “the percent inhibition formula provided”, “Table 3” for “Table 2”

[4] = biological target: T4, HER-2 (Homo sapiens, UniProt P04626); assay: HER-2 Kinase Assay; conditions: for inhibition at 1 µM: test concentration of 1 μM; for IC50: value in parentheses
T4 construct: His6 with thrombin site (N); purchased Proqinase (Freiburg, Germany)
Outline: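 Read-out was scintillation counting of 33P incorporated into biotinylated polyGluTyr captured on streptavidin plates. Reactions ran 1 h at 30 °C with GST-fused HER-2 residues 679–1255, 1 μM ATP, Mn2+ and Mg2+ at pH 7.5; data given as percent inhibition at 1 μM, with IC50 where determined.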

T3 sequence (P07948 whole entry): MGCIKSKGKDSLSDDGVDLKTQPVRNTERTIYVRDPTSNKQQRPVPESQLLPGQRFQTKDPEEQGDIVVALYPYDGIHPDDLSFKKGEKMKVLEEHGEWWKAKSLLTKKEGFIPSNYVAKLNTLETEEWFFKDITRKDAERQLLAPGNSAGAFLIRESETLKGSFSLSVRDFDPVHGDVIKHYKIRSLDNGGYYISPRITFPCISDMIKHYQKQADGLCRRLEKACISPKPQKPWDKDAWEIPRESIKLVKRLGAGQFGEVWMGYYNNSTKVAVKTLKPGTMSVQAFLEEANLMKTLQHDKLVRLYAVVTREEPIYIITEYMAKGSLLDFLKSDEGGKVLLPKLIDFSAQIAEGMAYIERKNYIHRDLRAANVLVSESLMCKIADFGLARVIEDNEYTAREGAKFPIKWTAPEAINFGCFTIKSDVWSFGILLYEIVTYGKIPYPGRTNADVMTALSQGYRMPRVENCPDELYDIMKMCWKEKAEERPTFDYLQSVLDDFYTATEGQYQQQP
T4 sequence (P04626 679-1255): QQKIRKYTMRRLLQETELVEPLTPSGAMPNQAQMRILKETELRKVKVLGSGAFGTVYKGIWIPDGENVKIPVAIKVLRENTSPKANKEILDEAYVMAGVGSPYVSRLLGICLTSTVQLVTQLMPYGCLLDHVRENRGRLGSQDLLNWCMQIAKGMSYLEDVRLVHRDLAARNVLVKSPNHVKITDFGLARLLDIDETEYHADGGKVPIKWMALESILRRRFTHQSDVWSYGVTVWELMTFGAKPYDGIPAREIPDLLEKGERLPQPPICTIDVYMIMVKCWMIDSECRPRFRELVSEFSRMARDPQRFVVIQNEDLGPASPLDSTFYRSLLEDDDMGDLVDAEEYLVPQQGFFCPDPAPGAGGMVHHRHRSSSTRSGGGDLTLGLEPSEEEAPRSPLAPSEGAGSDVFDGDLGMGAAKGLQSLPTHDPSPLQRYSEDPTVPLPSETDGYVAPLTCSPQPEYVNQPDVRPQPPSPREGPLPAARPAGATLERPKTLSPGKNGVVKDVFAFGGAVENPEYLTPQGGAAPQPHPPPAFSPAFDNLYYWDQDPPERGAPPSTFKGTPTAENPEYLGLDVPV
T2 sequence (P12931 whole entry): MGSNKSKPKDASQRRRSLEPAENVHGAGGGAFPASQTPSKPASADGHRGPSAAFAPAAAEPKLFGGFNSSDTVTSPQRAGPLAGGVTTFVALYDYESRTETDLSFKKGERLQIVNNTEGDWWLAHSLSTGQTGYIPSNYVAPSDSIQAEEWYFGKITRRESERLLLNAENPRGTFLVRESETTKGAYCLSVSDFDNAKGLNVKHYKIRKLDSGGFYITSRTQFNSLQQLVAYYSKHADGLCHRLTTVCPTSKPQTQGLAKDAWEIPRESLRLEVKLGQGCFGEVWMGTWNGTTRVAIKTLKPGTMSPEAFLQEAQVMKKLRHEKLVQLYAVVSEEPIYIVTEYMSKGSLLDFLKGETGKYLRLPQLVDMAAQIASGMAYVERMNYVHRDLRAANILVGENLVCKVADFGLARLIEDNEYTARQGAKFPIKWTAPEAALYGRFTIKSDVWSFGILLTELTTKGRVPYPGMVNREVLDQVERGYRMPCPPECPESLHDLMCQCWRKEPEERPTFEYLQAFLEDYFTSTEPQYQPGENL
T1 sequence (P00533 669-1210 limits assumed): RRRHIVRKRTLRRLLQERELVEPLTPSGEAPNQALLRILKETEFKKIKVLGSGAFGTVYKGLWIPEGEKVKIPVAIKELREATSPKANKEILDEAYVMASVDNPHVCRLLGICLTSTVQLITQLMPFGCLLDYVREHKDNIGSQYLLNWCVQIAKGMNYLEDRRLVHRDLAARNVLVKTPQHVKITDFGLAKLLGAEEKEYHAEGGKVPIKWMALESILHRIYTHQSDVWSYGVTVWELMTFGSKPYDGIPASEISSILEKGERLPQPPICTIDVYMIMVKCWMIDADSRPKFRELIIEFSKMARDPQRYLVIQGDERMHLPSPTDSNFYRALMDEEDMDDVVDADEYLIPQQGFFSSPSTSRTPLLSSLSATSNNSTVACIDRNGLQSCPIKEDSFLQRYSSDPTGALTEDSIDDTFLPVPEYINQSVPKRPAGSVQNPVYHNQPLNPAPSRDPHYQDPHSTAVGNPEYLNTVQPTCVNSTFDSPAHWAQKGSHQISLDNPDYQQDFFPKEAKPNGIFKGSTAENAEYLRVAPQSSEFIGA

IC50 [1]	inhibition at 2 µM [2]	inhibition at 2 µM [3]	inhibition at 1 µM [4]	IC50 [4]	inhibition at 2 µM [1]	% Inhibition (Lyn) ([3]; 2 µM)	SMILES
0.223 µM	52%	68%	54%	5.44 µM	–	–	O=C(Nc1ccc(CN2CCOCC2)cc1)c1sc2ncnc3c2c1NC(=O)N3c1ccc(F)cc1Cl [Cpd 16, 5-(2-chloro-4-fluoro-phenyl)-4-oxo-4,5-dihydro-3H-1-thia-3,5,6,8-tetraaza-acenaphthylene-2-carboxylic acid (4-morpholin-4-ylmethyl-phenyl)-amide]
–	43%	–	-11%	–	7%	–	Cc1ccc(-n2nc(C(C)(C)C)cc2N2C(=O)Nc3c(C(=O)Nc4ccc(CN5CCOCC5)cc4)sc4ncnc2c34)cc1 [Cpd 76, 5-(5-tert-butyl-2-p-tolyl-2H-pyrazol-3-yl)-4-oxo-4,5-dihydro-3H-1-thia-3,5,6,8-tetraaza-acenaphthylene-2-carboxylic acid (4-morpholin-4-ylmethyl-phenyl)-amide]
–	43%	–	–	> 10 µM	30%	–	COc1cc(N2C(=O)Nc3c(C(=O)Nc4ccc(OC)c(OC)c4)sc4ncnc2c34)ccc1Br [Cpd 82, 5-(4-bromo-3-methoxy-phenyl)-4-oxo-4,5-dihydro-3H-1-thia-3,5,6,8-tetraaza-acenaphthylene-2-carboxylic acid (3,4-dimethoxy-phenyl)-amide]
–	-17%	–	–	4.38 µM	36%	–	COc1cc(N2C(=O)Nc3c(C(=O)Nc4ccc(CN5CCN(C)CC5)cc4)sc4ncnc2c34)ccc1Br [Cpd 85, 5-(4-bromo-3-methoxy-phenyl)-4-oxo-4,5-dihydro-3H-1-thia-3,5,6,8-tetraaza-acenaphthylene-2-carboxylic acid [4-(4-methyl-piperazin-1-ylmethyl)-phenyl]-amide]
0.027 µM	-9%	–	60%	0.915 µM	–	–	COc1ccc(NC(=O)c2sc3ncnc4c3c2NC(=O)N4c2ccc(Oc3ccccc3)cc2)cc1OC [Cpd 99, 4-oxo-5-(4-phenoxy-phenyl)-4,5-dihydro-3H-1-thia-3,5,6,8-tetraaza-acenaphthylene-2-carboxylic acid (3,4-dimethoxy-phenyl)-amide]
0.025 µM	–	40%	60%	0.536 µM	–	48.5%	O=C(Nc1ccc(CCN2CCCCC2)cc1)c1sc2ncnc3c2c1NC(=O)N3c1ccc(Oc2ccccc2)c(F)c1 [Cpd 114, 5-(3-fluoro-4-phenoxy-phenyl)-4-oxo-4,5-dihydro-3H-1-thia-3,5,6,8-tetraaza-acenaphthylene-2-carboxylic acid [4-(2-piperidin-1-yl-ethyl)-phenyl]-amide]
–	26%	37%	–	~100 µM	–	–	CC(C)(C)OC(=O)NCCCNC(=O)c1sc2ncnc3c2c1NC(=O)N3c1ccc2c(ccn2Cc2cccc(F)c2)c1 [Cpd 141, [3-({5-[1-(3-fluoro-benzyl)-1H-indol-5-yl]-4-oxo-4,5-dihydro-3H-1-thia-3,5,6,8-tetraaza-acenaphthylene-2-carbonyl}-amino)-propyl]-carbamic acid tert-butyl ester]

The remaining lines, values behind:

SMILES	IC50 [1]	inhibition at 2 µM [2]	inhibition at 2 µM [3]	inhibition at 1 µM [4]	IC50 [4]	inhibition at 2 µM [1]	% Inhibition (Lyn) ([3]; 2 µM)
COc1ccc(-c2sc3ncnc4c3c2NC(=O)N4c2ccc(F)c(Cl)c2)cc1OC [Cpd 9, 5-(3-chloro-4-fluoro-phenyl)-2-(3,4-dimethoxy-phenyl)-3H,5H-1-thia-3,5,6,8-tetraaza-acenaphthylen-4-one]	1.03 µM	26%	-7%	–	–	–	–
COc1cc(NC(=O)c2sc3ncnc4c3c2NC(=O)N4c2cc(OC)c(OC)c(OC)c2Cl)ccc1OCC1CCCCO1 (centres unmarked) [Cpd 30, 5-(2-chloro-3,4,5-trimethoxy-phenyl)-4-oxo-4,5-dihydro-3H-1-thia-3,5,6,8-tetraaza-acenaphthylene-2-carboxylic acid [3-methoxy-4-(tetrahydro-pyran-2-ylmethoxy)-phenyl]-amide]	19.2 µM	1%	-6%	19%	–	–	–
COc1cc(NC(=O)c2sc3ncnc4c3c2NC(=O)N4c2cc(OC)c(OC)c(OC)c2)ccc1OCC1CCCCO1 (centres unmarked) [Cpd 31, 5-(3,4,5-trimethoxy-phenyl)-4-oxo-4,5-dihydro-3H-1-thia-3,5,6,8-tetraaza-acenaphthylene-2-carboxylic acid [3-methoxy-4-(tetrahydro-pyran-2-ylmethoxy)-phenyl]-amide]	42.7 µM	8%	-7%	1%	–	–	–
CN1CCCC(COc2ccc(NC(=O)c3sc4ncnc5c4c3NC(=O)N5c3ccc(Cl)cc3Cl)cc2)C1 (centres unmarked) [Cpd 32, 5-(2,4-dichloro-phenyl)-4-oxo-4,5-dihydro-3H-1-thia-3,5,6,8-tetraaza-acenaphthylene-2-carboxylic acid [4-(1-methyl-piperidin-3-ylmethoxy)-phenyl]-amide]	0.58 µM	32%	38%	33%	–	–	–
COc1cc(N2C(=O)Nc3c(C(=O)Nc4ccc(CN5CCCCC5)cc4)sc4ncnc2c34)c(Cl)cc1Cl [Cpd 33, 5-(2,4-dichloro-5-methoxy-phenyl)-4-oxo-4,5-dihydro-3H-1-thia-3,5,6,8-tetraaza-acenaphthylene-2-carboxylic acid (4-piperidin-1-ylmethyl-phenyl)-amide]	1.89 µM	32%	36%	14%	–	–	–
COc1cc(N2C(=O)Nc3c(C(=O)Nc4ccc(OCCN5CCOCC5)c(OC)c4)sc4ncnc2c34)c(Cl)cc1Cl [Cpd 34, 5-(2,4-dichloro-5-methoxy-phenyl)-4-oxo-4,5-dihydro-3H-1-thia-3,5,6,8-tetraaza-acenaphthylene-2-carboxylic acid [3-methoxy-4-(2-morpholin-4-yl-ethoxy)-phenyl]-amide]	5.37 µM	23%	10%	-14%	–	–	–
COc1cc(N2C(=O)Nc3c(C(=O)Nc4ccc(OC)c(OC)c4)sc4ncnc2c34)c(Cl)cc1Cl [Cpd 35, 5-(2,4-dichloro-5-methoxy-phenyl)-4-oxo-4,5-dihydro-3H-1-thia-3,5,6,8-tetraaza-acenaphthylene-2-carboxylic acid (3,4-dimethoxy-phenyl)-amide]	5.71 µM	7%	-11%	-12%	–	–	–
COc1cc(N2C(=O)Nc3c(C(=O)N(C)C)sc4ncnc2c34)ccc1Br [Cpd 83, 5-(4-bromo-3-methoxy-phenyl)-4-oxo-4,5-dihydro-3H-1-thia-3,5,6,8-tetraaza-acenaphthylene-2-carboxylic acid dimethylamide]	–	44%	–	–	> 10 µM	-2%	–
